Laboratory results published in patent US11319322B2, “Substituted aryl ether compound, preparation method thereof, pharmaceutical composition and use thereof” (Xiamen University, priority 2017, dated 2022).

What was measured:
Format in all cases: cell-based
[1] = molecular target: T1, KIF5B-RET-BaF3 (Homo sapiens, UniProt P07949); assay: Growth inhibition of KIF5B-RET-BaF3 cells stably transfected with kinase (MTS); settings: 48 h, read-out: KIF5B-RET (IC50/nM)
T1 construct: fused on or other part: P33176 (Kinesin-1 heavy chain)
T1 sequence (P07949 whole entry, change not shown, the tested form may be a part): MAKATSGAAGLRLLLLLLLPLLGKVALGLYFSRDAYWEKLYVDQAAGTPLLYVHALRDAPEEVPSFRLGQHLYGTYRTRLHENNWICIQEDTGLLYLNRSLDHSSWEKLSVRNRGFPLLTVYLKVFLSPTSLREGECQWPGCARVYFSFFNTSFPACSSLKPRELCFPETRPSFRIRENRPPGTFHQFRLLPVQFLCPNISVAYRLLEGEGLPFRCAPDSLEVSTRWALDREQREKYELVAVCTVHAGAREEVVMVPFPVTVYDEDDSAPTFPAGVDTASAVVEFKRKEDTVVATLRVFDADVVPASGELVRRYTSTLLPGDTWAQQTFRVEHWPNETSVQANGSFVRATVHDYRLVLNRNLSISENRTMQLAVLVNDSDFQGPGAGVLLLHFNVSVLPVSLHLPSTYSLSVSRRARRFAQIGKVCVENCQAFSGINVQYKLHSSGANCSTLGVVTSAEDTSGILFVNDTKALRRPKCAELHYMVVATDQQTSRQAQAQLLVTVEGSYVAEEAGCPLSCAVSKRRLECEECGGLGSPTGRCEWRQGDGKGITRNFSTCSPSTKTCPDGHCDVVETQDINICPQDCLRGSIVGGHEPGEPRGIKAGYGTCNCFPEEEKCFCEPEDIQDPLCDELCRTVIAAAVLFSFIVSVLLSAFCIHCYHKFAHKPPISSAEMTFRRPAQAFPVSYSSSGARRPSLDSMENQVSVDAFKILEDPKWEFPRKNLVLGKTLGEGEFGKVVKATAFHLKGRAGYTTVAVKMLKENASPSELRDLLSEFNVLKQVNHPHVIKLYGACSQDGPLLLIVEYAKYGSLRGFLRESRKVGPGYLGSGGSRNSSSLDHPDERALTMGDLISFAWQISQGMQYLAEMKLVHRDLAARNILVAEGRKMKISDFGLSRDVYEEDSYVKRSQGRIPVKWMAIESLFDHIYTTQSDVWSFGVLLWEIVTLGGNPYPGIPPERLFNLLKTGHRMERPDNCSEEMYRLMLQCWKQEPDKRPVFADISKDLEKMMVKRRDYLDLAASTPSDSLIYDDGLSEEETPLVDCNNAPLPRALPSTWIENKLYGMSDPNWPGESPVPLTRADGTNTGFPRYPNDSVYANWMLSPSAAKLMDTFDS
How it was run: (§1)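 BaF3 cells stably expressing CCDC6-RET or KIF5B-RET, or parental BaF3, 2×10^4 cells/well, treated 48 h at 37 °C with 8-point 1:3 dilutions from 10 μM (0.1% DMSO). MTS/PES added 1–4 h, OD490 read; inhibition versus DMSO and blank gave IC50.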

[2] = system: wild-type BaF3; assay: Growth inhibition of wild-type BaF3 cells, broad-spectrum toxicity (MTS); settings: Mus musculus, 48 h, read-out: WT Ba/F3 (IC50/nM)
How it was run: as §1

[3] = molecular target: T2, CCDC6-RET-BaF3 (Homo sapiens, UniProt P07949); assay: Growth inhibition of CCDC6-RET-BaF3 cells stably transfected with kinase (MTS); settings: 48 h, read-out: CCDC6-RET (IC50/nM)
T2 construct: fused on or other part: Q16204 (Coiled-coil domain-containing protein 6)
T2 sequence (P07949 whole entry, change not shown, the tested form may be a part): as above
How it was run: as §1

Row | Compound | GI50 [1] | IC50 [2] | GI50 [3]
1 | Cc1ccc(Oc2nc(-c3ccc(N)cc3)nc3c2ncn3C)cc1NC(=O)c1ccc(CN2CCN(C)CC2)c(C(F)(F)F)c1 [I-j-5] | 2370 nM | 4200 nM | 1880 nM
2 | Cc1ccc(C(=O)Nc2ccc(CN3CCN(C)CC3)c(C(F)(F)F)c2)cc1Oc1nc(N(C)C)nc2ccn(C)c12 [III-m-24] | 3230 nM | 3080 nM | 3120 nM
3 | Cc1ccc(C(=O)Nc2cc(CN3CCN(C)CC3)cc(C(F)(F)F)c2)cc1Oc1nc(-c2cccnc2)nc2ccsc12 [VI-q-1] | 3430 nM | 4360 nM | 3570 nM
4 | CN1CCN(Cc2ccc(NC(=O)c3cccc(Oc4cc(-c5cccnc5)nc5[nH]ccc45)c3)cc2C(F)(F)F)CC1 [V-I-1] | 1460 nM | 2070 nM | 1460 nM
5 | Cc1ccc(Oc2nc(-c3ccncc3)nc3[nH]ncc23)cc1NC(=O)c1ccc(CN2CCN(C)CC2)c(C(F)(F)F)c1 [II-j-6] | 44.2 nM | 4230 nM | 7.96 nM
6 | Cc1ccc(Oc2nc(-c3cccnc3)nc3ccn(C)c23)cc1C(=O)Nc1cc(CN2CCN(C)CC2)cc(C(F)(F)F)c1 [III-r-3] | 2720 nM | 3650 nM | 3770 nM
7 | Cc1ccc(C(=O)Nc2ccc(CN3CCN(C)CC3)c(C(F)(F)F)c2)cc1Oc1nc(-c2ccsc2)nc2cc[nH]c12 [III-m-27] | 1500 nM | 34500 nM | 1400 nM
8 | CN1CCN(Cc2ccc(C(=O)Nc3cccc(Oc4nc(-c5ccncc5)nc5[nH]ncc45)c3)cc2C(F)(F)F)CC1 [II-h-4] | 300 nM | 3930 nM | 78.6 nM
9 | Cc1ccc(C(=O)Nc2ccc(CN3CCN(C)CC3)c(C(F)(F)F)c2)cc1Oc1nc(-c2cccc(Cl)c2)nc2ccn(C)c12 [III-m-13] | 3000 nM | 3390 nM | 3510 nM
10 | Cc1ccc(C(=O)Nc2ccc(CN3CCN(C)CC3)c(C(F)(F)F)c2)cc1Oc1nc(-c2ccoc2)nc2cc[nH]c12 [III-m-8] | 1710 nM | 4100 nM | 1240 nM
11 | Cc1ccc(Oc2cc(-c3ccncc3)nc3[nH]ccc23)cc1C(=O)Nc1ccc(CN2CCN(C)CC2)c(C(F)(F)F)c1 [V-n-2] | 616 nM | 2070 nM | 580 nM
12 | Cc1ccc(C(=O)Nc2ccc(CN3CCN(C)CC3)c(C(F)(F)F)c2)cc1Oc1nc(-c2ccccc2)nc2cc[nH]c12 [III-m-3] | 2410 nM | 3100 nM | 2710 nM
13 | Cc1ccc(C(=O)Nc2ccc(CN3CCN(C)CC3)c(C(F)(F)F)c2)cc1Oc1nc(-c2ccc(Cl)cc2)nc2ccn(C)c12 [III-m-14] | 2720 nM | 3190 nM | 2920 nM
14 | CN1CCN(Cc2ccc(C(=O)Nc3cc(Oc4nc(-c5cccnc5)nc5[nH]ncc45)ccc3Cl)cc2C(F)(F)F)CC1 [II-k-3] | 1350 nM | 1340 nM | 567 nM
15 | Cc1ccc(C(=O)Nc2cccc(C(F)(F)F)c2)cc1Oc1nc(-c2ccncc2)nc2c1cnn2C [II-e-2] | 1770 nM | > 10000 nM | 1430 nM
16 | CN1CCN(Cc2ccc(C(=O)Nc3cc(Oc4nc(-c5ccc(O)cc5)nc5cc[nH]c45)ccc3Cl)cc2C(F)(F)F)CC1 [III-k-9] | 1490 nM | 1650 nM | 1190 nM
17 | CN1CCN(Cc2ccc(C(=O)Nc3cc(Oc4nc(-c5ccc(N)cc5)nc5cc[nH]c45)ccc3Cl)cc2C(F)(F)F)CC1 [III-k-11] | 496 nM | 1290 nM | 451 nM
18 | Cc1ccc(C(=O)Nc2ccc(CN3CCN(C)CC3)c(C(F)(F)F)c2)cc1Oc1nc(N2CCOCC2)nc2ccn(C)c12 [III-m-20] | 2500 nM | 3550 nM | 2960 nM
19 | Cc1ccc(-c2nc(Oc3cc(C(=O)Nc4ccc(CN5CCN(C)CC5)c(C(F)(F)F)c4)ccc3C)c3c(ccn3C)n2)cc1 [III-m-12] | 4280 nM | 3580 nM | 4020 nM
20 | Cc1ccc(Oc2nc(-c3ccc(O)cc3)nc3c2ncn3C)cc1NC(=O)c1ccc(CN2CCN(C)CC2)c(C(F)(F)F)c1 [I-j-4] | 1610 nM | 1790 nM | 1010 nM
